# Reference: patent publication US5770595A, “Oxime substituted therapeutic compounds” (Cell Therapeutics, Inc., priority 1994, dated 1998)
# Columns and labels:
# [1] = system: U937 cells / activated human umbilical vein endothelial cells (HUVEC); experiment: adhesion of U937 cells to TNF-activated HUVEC; format: cell-based; conditions: human TNF 20 ng/ml, 12 hours
# Description: Another assay measures the effects of drug to inhibit adhesion of U937 cells to TNF-activated HUVEC cells In this experiment, HUVEC cells are induced with human TNF-α (20 ng/ml) and drug at varying concentrations for 14-16 hrs. U937 cells (a human monocyte cell line) are incubated and labeled with BCECF (10 μg/ml), a fluorescent dye. The U937 cell preparation (2.5×10^4 cells per well) is layered on top of the activated HUVEC cells. The cells are reverse spun to remove partially adhering and nonadhering U937 cell. The adherent U937 cells are measured by fluorescence on a fluorescent plate reader.
# 1521 to inhibit adhesion of U937 cells to activated human umbilical vein endothelial cells (HUVEC). HUVEC cells were activated with 20 ng/ml of human TNF for 12 hours. Compound no. 1521 was added to samples one hour prior to adding TNF. U937 cells preloaded with a fluorescent dye were added to the HUVEC cells and adhesion measured after washing. Compound no. […] Background adhesion of U937 cells to non-activated HUVEC is shown as a dashed line.
# murine thymocyte = experiment: thymocyte proliferation stimulated by ConA and IL-2; format: cell-based, murine (female Balb/C mice); conditions: IL-2 20 ng/ml; drug two hours prior; FIG. 4
# Description: A thymocyte costimulator assay is conducted to evaluate the inventive compounds to inhibit activation and proliferation of thymocytes caused by stimulation with Con A and interleukin-1 (IL-1), or […]. Thymuses are obtained from mice (e.g., female Balb/C mice) and the thymuses are removed and dissociated into culture media (e.g., RPMI 1640 without serum supplementation). The dissociated thymus tissue and cell suspension is transferred to centrifuge tubes and allowed to settle, washed with HBSS and resuspended in serum-supplemented culture media (e.g., RPMI 1640 with 10% fetal calf serum). Any contaminating red cells are lysed, and viable cells are resuspended and counted. Thymocytes are plated (e.g., 96-well plates at a density of 2×10^5 cells/well) and a stimulating agent, such as Con A, IL-1 (e.g., IL-1α) or IL-2 is added to the well. The cells are incubated for 4 days at 37° C. On the fourth day, the cells are pulsed with tritiated thymidine and cell proliferation determined. […]
# 1522 on inhibition of thymocyte proliferation stimulated by ConA and interleukin-2 (IL-2) (20 ng/ml). Compound no. […]
# Thymuses, obtained from normal, female Balb/C mice, were dissociated and plated into 96-well plates at a density of 2×10^5 cells/well. […] The amount of tritiated thymidine dye incorporated by the harvested cells was determined in a liquid scintillation counter. […]
SMILES,adhesion of U937 cells to activated HUVEC [1],"inhibition of thymocyte proliferation, ConA + IL-2 (murine thymocyte)"
CC(CCCCn1c(=O)c2c(ncn2C)n(C)c1=O)=NO [Compound no. 1521],reduced adhesion,
CON=C(C)CCCCn1c(=O)c2c(ncn2C)n(C)c1=O [Compound no. 1522],,inhibited thymocyte proliferation at the higher doses tested
